Test results reported in the supplement of paper PMC10627819.

Experiments:
B. subtilis 168 = experiment: fitness (endpoint OD595 vs no drug) (fraction); higher = more growth
Procedure, shortened: (§1)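 Fitness was defined as the optical density at the transition into stationary phase relative to the robust mean of no-drug control wells. Values were capped at 1. Cultures were started at OD595 0.01 in 384-well plates (30 µl, or 55 µl for S. pneumoniae) in TSB, LB Lennox or CY at 37 °C. OD595 was recorded every 30 min over 14 h, with the first reading subtracted as background.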

S. aureus DSM 20231 [1] = experiment: as above
Procedure, shortened: as §1

S. aureus Newman = experiment: as above
Procedure, shortened: as §1

S. pneumoniae D39V = experiment: as above
Procedure, shortened: as §1

S. aureus DSM 20231 [2] = experiment: Bliss interaction score (quartile over a dose matrix) (fitness difference); higher = more antagonism (negative = synergy)
Procedure, shortened: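 The Bliss score subtracts expected fitness, the product of the single-drug fitness values, from observed fitness. Fitness is plate-normalised OD595 at entry into stationary phase, relative to the robust no-drug mean and capped at 1, with single-drug fitness inferred from combinations. Summaries are quartiles over technical, biological and donor/recipient replicates.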

[3] = first compound 1 µg/mL, partner 4 µg/mL
[4] = first compound 1 µg/mL, partner 8 µg/mL
[5] = first compound 2 µg/mL, partner 4 µg/mL
[6] = first compound 2 µg/mL, partner 8 µg/mL
[7] = first compound 4 µg/mL, partner 4 µg/mL
[8] = first compound 4 µg/mL, partner 8 µg/mL
[9] = first compound 1 µg/mL, partner 16 µg/mL
[10] = first compound 1 µg/mL, partner 32 µg/mL, one replicate
[11] = first compound 1 µg/mL, partner 64 µg/mL, one replicate
[12] = first compound 2 µg/mL, partner 16 µg/mL
[13] = first compound 2 µg/mL, partner 32 µg/mL, one replicate
[14] = first compound 2 µg/mL, partner 64 µg/mL, one replicate
[15] = first compound 4 µg/mL, partner 16 µg/mL
[16] = first compound 4 µg/mL, partner 32 µg/mL, one replicate
[17] = first compound 4 µg/mL, partner 64 µg/mL, one replicate
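Throughout, for Bliss interaction score (quartile over a dose matrix): first quartile when negative (synergy) and third quartile when positive (antagonism).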

Work on `Cc1cc(NS(=O)(=O)c2ccc(N)cc2)no1` [Sulfamethoxazol] + CN[C@@H]1[C@H](O)[C@H](NC)[C@H]2O[C@@]3(O)C(=O)C[C@@H](C)O[C@H]3O[C@@H]2[C@H]1O [Spectinomycin] yielded a fitness (B. subtilis 168; first compound 0.5 µg/mL, partner 2 µg/mL, one replicate) of 0.916, a fitness (B. subtilis 168; first compound 0.5 µg/mL, partner 4 µg/mL, one replicate) of 0.882 and a fitness (B. subtilis 168; first compound 0.5 µg/mL, partner 8 µg/mL, one replicate) of 0.851. The fitness (B. subtilis 168; first compound 1 µg/mL, partner 2 µg/mL) was 0.926, the fitness (B. subtilis 168; [3]) was 0.92 and the fitness (B. subtilis 168; [4]) was 0.96. The fitness (B. subtilis 168; first compound 2 µg/mL, partner 2 µg/mL) was 0.853, the fitness (B. subtilis 168; [5]) was 0.861 and the fitness (B. subtilis 168; [6]) was 0.891. For the same molecule, the fitness (B. subtilis 168; first compound 4 µg/mL, partner 2 µg/mL) was 0.941, the fitness (B. subtilis 168; [7]) was 0.959 and the fitness (B. subtilis 168; [8]) was 0.891. For the same molecule, the fitness (S. aureus DSM 20231 [1]; [3]) was 0.897, the fitness (S. aureus DSM 20231 [1]; [4]) was 0.822 and the fitness (S. aureus DSM 20231 [1]; [9]) was 0.763. For the same molecule, the fitness (S. aureus DSM 20231 [1]; [10]) was 0.826, the fitness (S. aureus DSM 20231 [1]; [11]) was 0.08 and the fitness (S. aureus DSM 20231 [1]; [5]) was 0.896. It also gave a fitness (S. aureus DSM 20231 [1]; [6]) of 0.861, a fitness (S. aureus DSM 20231 [1]; [12]) of 0.812 and a fitness (S. aureus DSM 20231 [1]; [13]) of 0.796. It also gave a fitness (S. aureus DSM 20231 [1]; [14]) of 0.0783, a fitness (S. aureus DSM 20231 [1]; [7]) of 0.994 and a fitness (S. aureus DSM 20231 [1]; [8]) of 0.957. It also gave a fitness (S. aureus DSM 20231 [1]; [15]) of 0.849, a fitness (S. aureus DSM 20231 [1]; [16]) of 0.802 and a fitness (S. aureus DSM 20231 [1]; [17]) of 0.0708. It also gave a fitness (S. aureus Newman; [3]) of 0.972, a fitness (S. aureus Newman; [4]) of 0.986 and a fitness (S. aureus Newman; [9]) of 0.877. For the same molecule, the fitness (S. aureus Newman; [10]) was 0.589, the fitness (S. aureus Newman; [11]) was 0.0829 and the fitness (S. aureus Newman; [5]) was 0.964. The fitness (S. aureus Newman; [6]) was 0.985, the fitness (S. aureus Newman; [12]) was 0.927 and the fitness (S. aureus Newman; [13]) was 0.577. It also gave a fitness (S. aureus Newman; [14]) of 0.0759, a fitness (S. aureus Newman; [7]) of 0.983 and a fitness (S. aureus Newman; [8]) of 0.967. For the same molecule, the fitness (S. aureus Newman; [15]) was 0.925, the fitness (S. aureus Newman; [16]) was 0.581 and the fitness (S. aureus Newman; [17]) was 0.0529. It also gave a fitness (S. aureus Newman; first compound 8 µg/mL, partner 4 µg/mL, one replicate) of at least 1, a fitness (S. aureus Newman; first compound 8 µg/mL, partner 8 µg/mL, one replicate) of 0.959 and a fitness (S. aureus Newman; first compound 8 µg/mL, partner 16 µg/mL, one replicate) of 0.905. It also gave a fitness (S. pneumoniae D39V; [3]) of 0.954, a fitness (S. pneumoniae D39V; [4]) of 0.935 and a fitness (S. pneumoniae D39V; first compound 1 µg/mL, partner 16 µg/mL, one replicate) of 0.691. The fitness (S. pneumoniae D39V; [5]) was 0.889, the fitness (S. pneumoniae D39V; [6]) was 0.899 and the fitness (S. pneumoniae D39V; first compound 2 µg/mL, partner 16 µg/mL, one replicate) was 0.634. The fitness (S. pneumoniae D39V; [7]) was 0.924, the fitness (S. pneumoniae D39V; [8]) was 0.922 and the fitness (S. pneumoniae D39V; first compound 4 µg/mL, partner 16 µg/mL, one replicate) was 0.702.

For `CC[C@H]1OC(=O)[C@H](C)C(=O)[C@H](C)[C@@H](O[C@@H]2O[C@H](C)C[C@H](N(C)C)[C@H]2O)[C@](C)(OC)C[C@@H](C)C(=O)[C@H](C)[C@H]2N(CCCCn3cnc(-c4cccnc4)c3)C(=O)O[C@]12C` [Telithromycin] + Cc1ccc(C(C)C)c(O)c1 [Thymol], the Bliss interaction score (S. aureus DSM 20231 [2]) was -0.222.

With `Cc1c(Cl)cccc1Nc1ccccc1C(=O)O` [Tolfenamic] + CN[C@H](CC(C)C)C(=O)N[C@H]1C(=O)N[C@@H](CC(N)=O)C(=O)N[C@H]2C(=O)N[C@H]3C(=O)N[C@H](C(=O)N[C@H](C(=O)O)c4cc(O)cc(O)c4-c4cc3ccc4O)[C@H](O)c3ccc(c(Cl)c3)Oc3cc2cc(c3O[C@@H]2O[C@H](CO)[C@@H](O)[C@H](O)[C@H]2O[C@H]2C[C@](C)(N)[C@H](O)[C@H](C)O2)Oc2ccc(cc2Cl)[C@H]1O [Vancomycin] the Bliss interaction score (S. aureus DSM 20231 [2]) was 0.124.

With `Cc1c(Cl)cccc1Nc1ccccc1C(=O)O` [Tolfenamic] + COc1cc(Cc2cnc(N)nc2N)cc(OC)c1OC [Trimethoprim] the Bliss interaction score (S. aureus DSM 20231 [2]) was -0.185.
